US6342511B1, “Phencyclidine derivatives, preparation method and pharmaceutical compositions containing same” (Societe de Conseils de Recherches et d'Applications …, priority 1977, dated 2002)
Where two headings read alike, the source gives them in different places.

Assays:
Type in all cases: binding
PCP1 sites = target: T1, PCP1 sites (Rattus norvegicus, UniProt P35439); assay: [3H]TCP displacement, cortex membranes, 1-site model; conditions: for cortex 1 site nH: Hill number of the cortex displacement curve
T1 construct: membrane preparations originating from anterior cerebrum homogenates of rats; from tissue; host or cells: rat anterior cerebrum (forebrain/cortex) membranes
Experimental: (§1) The affinity of the compounds for their potential bond site, can be evaluated by quantifying their ability to displace a specific tritiated label of a given site. The bond experiences are carried out by competition between the molecule to be tested and the appropriate radioligand on a membrane preparation rich in sites to be studied.
For the PCP1 sites, the tritiated label used is [^3H]TCP and the tests are carried out on membrane preparations originating from anterior cerebrum homogenates of rats.

PCP2 sites = assay: [3H]TCP displacement, cerebellum membranes, 2-site model, PCP2; conditions: [3H]TCP 2.5 nM, rat cerebellum
Experimental: as §1, with “studied. The concentration of the derivative tested which inhibits 50% of the bond of the radioligand to the receptor is called IC50.” for “studied.”
(§2) For the experimental conditions and membrane preparation techniques used, reference can be made to the literature (Brain Res., 378, 133-141 (1986); Eur. J. Pharm., 81, 531-542 (1982)).
(§3) For low affinity sites, the monosite treatment used led to incoherent results. The experimental data have therefore been reprocessed using non-linear regression (Marquardt-Levenberg algorithm) with Sigma Plot software (Jandel) according to a model with two noted sites of interaction PCP2 and PCP3. This processing proves to be more suitable than a monosite treatment (Student test: p<0.05) over a set of 3 to 4 experiments for each compound tested. Over all the experiments, the two site populations are found in a relative proportion to 68.0% (±1.5) for the PCP2 sites and 31.2% (±1.5) for the PCP3 sites.
(§4) For the PCP2 and PCP3 sites, the preparation originates from rat cerebella. Not having a specific label, only [^3H]TCP can be used. A more significant concentration of tritiated ligand (2.5 nM versus 1 nM in the cortex) is used to ensure that all the PCP2 and PCP3 sites are occupied.

PCP3 sites = assay: [3H]TCP displacement, cerebellum membranes, 2-site model, PCP3; conditions: [3H]TCP 2.5 nM, rat cerebellum
Experimental: as §1, with “studied. The concentration of the derivative tested which inhibits 50% of the bond of the radioligand to the receptor is called IC50.” for “studied.”
as §2, §3, §4

PCP receptors = target: T2, PCP receptors (Rattus norvegicus, UniProt P35439); assay: Percentage inhibition on PCP receptors ([3H]TCP, cerebral cortex membranes); conditions: compound 10 μM
T2 construct: membrane preparations originating from cerebral cortex of a rat; from tissue; host or cells: rat cerebral cortex membranes
Experimental: Percentage inhibition on PCP receptors:
The tritiated label used is [^3H]TCP and the tests are carried out on membrane preparations originating from cerebral cortex of a rat (Brain Res., 378, 133-141 (1986).

[1] = [3H]TCP 1 nM, rat cortex (anterior cerebrum) membranes, read-out: cortex 1 site IC50
[2] = cortex 1 site IC50, [3H]TCP 1 nM, rat cortex (anterior cerebrum) membranes
[3] = cortex 1 site IC50, [3H]TCP 1 nM, rat cortex membranes, bound in μM

SMILES: c1ccc2oc(C3(N4CCCCC4)CCSCC3)cc2c1 [Ex 10, N-[4-(2-benzofuryl)-tetrahydro-4H-thiopyran-4-yl]-piperidine]
- cortex 1 site nH (PCP1 sites): 0.9
- IC50 (PCP1 sites; [1]): 27.5 µM
- IC50 (PCP2 sites; two-site non-linear regression): 26.6 µM
- IC50 (PCP3 sites; two-site non-linear regression): 0.0591 µM
- inhibition at 10 µM (PCP receptors): 18%

SMILES: Cc1csc(C2(N3CCCCC3)CCSCC2)c1 [Ex 12, N-[4-(4-methyl-thiophen-2-yl)-tetrahydro-4H-thiopyran-4-yl]-piperidine]
- cortex 1 site nH (PCP1 sites): 0.93
- IC50 (PCP1 sites; [1]): 0.0778 µM
- IC50 (PCP2 sites; two-site non-linear regression): 0.772 µM
- IC50 (PCP3 sites; two-site non-linear regression): 0.0054 µM

SMILES: OCC1CCCN(C2(c3cccs3)CCCCC2)C1 (stereo not drawn) [Ex 8, N-[1-(2-thienyl)-cyclohexan-1-yl]-3-hydroxymethyl-piperidine]
- cortex 1 site nH (PCP1 sites): 0.96
- IC50 (PCP1 sites; [1]): 0.0284 µM
- IC50 (PCP2 sites; two-site non-linear regression): 2.24 µM
- IC50 (PCP3 sites; two-site non-linear regression): 0.0124 µM

SMILES: CC1CSCCC1(c1cccs1)N1CCCCC1 (single isomer, unassigned) [Ex 1 (majority), N-[4-(2-thienyl)-3-methyl-tetrahydro-4H-thiopyran-4-yl] piperidine]
- cortex 1 site nH (PCP1 sites): 0.94
- IC50 (PCP1 sites; [2]): 17.2 µM

SMILES: Cc1ccc(C2(N3CCCCC3)CCSCC2)s1 [Ex 11, N-[4-(5-methyl-thiophen-2-yl)-tetrahydro-4H-thiopyran-4-yl]-piperidine]
- cortex 1 site nH (PCP1 sites): 0.97
- IC50 (PCP1 sites; [1]): 0.462 µM
- IC50 (PCP2 sites; two-site non-linear regression): 0.532 µM
- IC50 (PCP3 sites; bound in μM): > 100 µM

SMILES: c1csc(C2(N3CCCCC3)CCCSC2)c1 (stereo not drawn) [Ex 21, N-[3-(2-thienyl)-tetrahydro-4H-thiopyran-3-yl] piperidine]
- cortex 1 site nH (PCP1 sites): 1.00
- IC50 (PCP1 sites; [1]): 0.0734 µM
- IC50 (PCP2 sites; two-site non-linear regression): 0.659 µM
- IC50 (PCP3 sites; two-site non-linear regression): 0.008 µM

SMILES: CC1CCCN(C2(c3cccs3)CCCCC2)C1 (single isomer, unassigned) [Ex 22 (−), N-[1-(2-thienyl)-cyclohexan-1-yl]-3-methyl piperidine]
- cortex 1 site nH (PCP1 sites): 1.08
- IC50 (PCP1 sites; [2]): 0.158 µM

SMILES: CC1CCCN(C2(c3cc4ccccc4s3)CCSCC2)C1 (racemic) [Ex 5, (±)-N-[4-(2-benzothiophenyl)-tetrahydro-4H-thiopyran-4-yl]-3-methyl-piperidine]
- IC50 (PCP1 sites; [3]): > 100 µM
- IC50 (PCP2 sites; bound in μM): > 100 µM
- IC50 (PCP3 sites; two-site non-linear regression): 0.581 µM

SMILES: C[C@H]1CCCN(C2(c3cc4ccccc4s3)CCSCC2)C1 [Ex 7, S-(−)-N-[4-(2-benzothiophenyl)-tetrahydro-4H-thiopyran-4-yl]-3-methyl-piperidine]
- cortex 1 site nH (PCP1 sites): 0.73
- IC50 (PCP1 sites; [2]): 82.8 µM
- IC50 (PCP2 sites; two-site non-linear regression): 84 µM
- IC50 (PCP3 sites; two-site non-linear regression): 0.639 µM

SMILES: c1coc(C2(N3CCCCC3)CCSCC2)c1 [Ex 9, N-[4-(2-furyl)-tetrahydro-4H-thiopyran-4-yl]-piperidine]
- cortex 1 site nH (PCP1 sites): 0.87
- IC50 (PCP1 sites; [1]): 0.133 µM
- IC50 (PCP2 sites; two-site non-linear regression): 1.02 µM
- IC50 (PCP3 sites; two-site non-linear regression): 0.0138 µM
- inhibition at 10 µM (PCP receptors): 96%

SMILES: CCNC1(c2cccs2)CCCCC1 [Ex 17, N-ethyl-1-(2-thienyl)-cyclohexylamine]
- cortex 1 site nH (PCP1 sites): 0.77
- IC50 (PCP1 sites; [2]): 0.0209 µM
- IC50 (PCP2 sites; two-site non-linear regression): 0.055 µM
- IC50 (PCP3 sites; two-site non-linear regression): 47.6 µM

SMILES: c1csc(C2(N3CCCCC3)CCSCC2)c1 [Ex 19, N-[4-(2-thienyl)-tetrahydro-4H-thiopyran-4-yl] piperidine]
- cortex 1 site nH (PCP1 sites): 1.05
- IC50 (PCP1 sites; [1]): 0.0716 µM
- IC50 (PCP2 sites; two-site non-linear regression): 0.586 µM
- IC50 (PCP3 sites; two-site non-linear regression): 0.0085 µM

SMILES: CC1CCCN(C2(c3cccs3)CCSCC2)C1 (racemic) [Ex 2, (±)-N-[4-(2-thienyl)-tetrahydro-4H-thiopyran-4-yl]-3-methyl-piperidine]
- cortex 1 site nH (PCP1 sites): 1.14
- IC50 (PCP1 sites; [1]): 0.132 µM
- IC50 (PCP2 sites; two-site non-linear regression): 0.265 µM
- IC50 (PCP3 sites; two-site non-linear regression): 2.85 µM

SMILES: CC1CCCN(C2(c3cccs3)CCCCC2)C1 (racemic) [Ex 22 (±), N-[1-(2-thienyl)-cyclohexan-1-yl]-3-methyl piperidine]
- cortex 1 site nH (PCP1 sites): 1.09
- IC50 (PCP1 sites; [2]): 0.0055 µM
- IC50 (PCP2 sites; two-site non-linear regression): 0.0473 µM
- IC50 (PCP3 sites; two-site non-linear regression): 1.45 µM

SMILES: c1coc(C2(N3CCCCC3)CCCCC2)c1 [Ex 18, N-[1-(2-furyl)-cyclohexan-1-yl] piperidine]
- cortex 1 site nH (PCP1 sites): 0.83
- IC50 (PCP1 sites; [1]): 0.0078 µM
- IC50 (PCP2 sites; two-site non-linear regression): 0.187 µM
- IC50 (PCP3 sites; two-site non-linear regression): 0.0056 µM

SMILES: CC1CCCN(C2(c3cccs3)CCCCC2)C1 (single isomer, unassigned) [Ex 22 (+), N-[1-(2-thienyl)-cyclohexan-1-yl]-3-methyl piperidine]
- cortex 1 site nH (PCP1 sites): 1.04
- IC50 (PCP1 sites; [2]): 0.0052 µM
- IC50 (PCP2 sites; two-site non-linear regression): 0.0283 µM
- IC50 (PCP3 sites; two-site non-linear regression): 0.808 µM

SMILES: C[C@@H]1CCCN(C2(c3cccs3)CCSCC2)C1 [Ex 4, R-(+)-N-[4-(2-thienyl)-tetrahydro-4H-thiopyran-4-yl]-3-methyl-piperidine]
- cortex 1 site nH (PCP1 sites): 0.84
- IC50 (PCP1 sites; [1]): 0.024 µM
- IC50 (PCP2 sites; two-site non-linear regression): 0.0532 µM
- IC50 (PCP3 sites; two-site non-linear regression): 2.08 µM

SMILES: c1csc(C2(N3CCCCC3)CCOCC2)c1 [Ex 20, N-[4-(2-thienyl)-tetrahydro-4H-pyran-4-yl] piperidine]
- cortex 1 site nH (PCP1 sites): 0.98
- IC50 (PCP1 sites; [1]): 1.22 µM
- IC50 (PCP2 sites; two-site non-linear regression): 5.84 µM
- IC50 (PCP3 sites; two-site non-linear regression): 0.035 µM

SMILES: C[C@@H]1CCCN(C2(c3cc4ccccc4s3)CCSCC2)C1 [Ex 6, R-(+)-N-[4-(2-benzothiophenyl)-tetrahydro-4H-thiopyran-4-yl]-3-methyl-piperidine]
- IC50 (PCP1 sites; [3]): > 100 µM
- IC50 (PCP2 sites; bound in μM): > 100 µM
- IC50 (PCP3 sites; two-site non-linear regression): 0.28 µM

SMILES: c1csc(C2(N3CCCCC3)CCCCC2)c1 [TCP, N-(1-(2-thienyl)cyclohexyl)piperidine, reference compound]
- IC50 (PCP2 sites; two-site non-linear regression): 0.059 µM
- IC50 (PCP3 sites; two-site non-linear regression): 3.72 µM

SMILES: CC1CSCCC1(c1cccs1)N1CCCCC1 (single isomer, unassigned) [Ex 1 (minority), N-[4-(2-thienyl)-3-methyl-tetrahydro-4H-thiopyran-4-yl] piperidine]
- cortex 1 site nH (PCP1 sites): 0.89
- IC50 (PCP1 sites; [2]): 0.0268 µM
- IC50 (PCP2 sites; two-site non-linear regression): 1.35 µM
- IC50 (PCP3 sites; two-site non-linear regression): 0.0176 µM
